Data reported in US6461834B1, “Clostripain catalyzed amidation of peptides” (Bionebraska, Inc., priority 1998, dated 2002).

Legend:
clostripain [1] = biological target: T1, clostripain (Hathewaya histolytica, UniProt P09870); assay: Effect of organic solvent on clostripain proteolytic activity (N-Bz-Phe-Val-Arg-p-nitroanilide substrate, photometric initial rates); assay type: biochemical; details: varying amounts of organic solvent, otherwise as Table III
T1 construct: This protease is a heterodimer; purchased Worthington
Method: A substrate solution (1 mL) of 2 mg N-Bz-Phe-Val-Arg-p-nitroanilide in 2.5 mM dithiothreitol, 1 mM calcium chloride, 50 mM Tricine buffer at pH 8.5 was incubated at room temperature with 10 μg of clostripain, in an aqueous solution containing 10% (v/v) of organic solvent. Initial rates were determined by photometric detection of the liberated […].
These reactions were repeated in the presence of varying amounts of organic solvent, and optimal concentrations for proteolytic activity were determined for propylene carbonate (10%), N,N-dimethylformamide (20%), trifluoroethanol (20%), and acetonitrile (20%).

clostripain [2] = biological target: T1, clostripain; assay: Inhibition of clostripain amidation activity by organic solvent (GLP-1(7-36)Ala-Phe-Ala-Hse substrate, HPLC); assay type: biochemical; details: 2 M ammonium acetate, pH 10.4, 45° C., maximal attained amidation level
Method: Maximal attained amidation level in the presence of various organic solvents was determined with GLP-1(7-36)Ala-Phe-Ala-Hse (SEQ ID NO:1; 2 mg/mL) in 2.5 mM DTT, 1 mM calcium chloride, 2 M ammonium acetate, pH 10.4, at 45° C., with 20 μg clostripain in a 1 mL reaction. Aliquots of the reaction mixture were removed at regular time intervals, quenched with acetic acid and assayed by HPLC analysis on a reverse phase HPLC column.

[3] = system: GLP-1(7-36)Ala-Phe-Ala-Hse; assay: Amidation by other Arg-specific proteases; assay type: biochemical; details: 1 M ammonium hydroxide, pH 10 and 8.5 (cathepsin B also pH 5.5), enzyme:substrate 1:50 to 1:100
Method: GLP-1(7-36)Ala-Phe-Ala-Hse (SEQ ID NO:1) (between 0.5 and 2 mg/mL) was dissolved in 1 M ammonium hydroxide at pH 10 and 8.5 and incubated individually with six different proteolytic enzymes, five of which have a specificity to cleave peptides at the carboxyl peptide bond of arginine residues, similar to that of clostripain. These included trypsin, thrombin, cathepsin B (also tested at pH 5.5), coagulation factor Xa, plasmin and papain. Papain is a thiol protease, albeit one which is not specific to arginyl bonds. […] Enzyme:substrate ratios were between 1:50 to 1:100 and protease specific additives were added where appropriate (e.g., calcium chloride).

[4] = assay type: physicochemical

Molecule: CN(C)C=O [Dimethylformamide, N,N-dimethylformamide]
- optimal concentration for proteolytic activity (clostripain [1]): 20%

Molecule: CC1COC(=O)O1 (centres unmarked) [Propylene carbonate]
- optimal concentration for proteolytic activity (clostripain [1]): 10%
- Extent of amidation (% of substrate converted) (clostripain [2]; 10% organic solvent): 29%

Molecule: trypsin
- production of GLP-1(7-36)NH2 (reversed phase chromatography) [3]: None of these proteases produced any GLP-1(7-36)NH2

Molecule: His-Ala-Glu-Gly-Thr-Phe-Thr-Ser-Asp- Val-Ser-Ser-Tyr-Leu-Glu-Gly-Gln-Ala-Ala-Lys-Glu-Phe-Ile-Ala-Trp-Leu- Val-Lys-Gly-Arg-NH2 [GLP-1(7-36)NH2]
- formation of D-contaminants ([4]; in water, pH about 4 to 8.4, −20° C. to 45° C., similar period of time): essentially no formation of D-contaminants
- degradation ([4]; pH 9.4): 9%
- degradation into D-contaminants ([4]; pH 10.5): a substantial amount of the peptide was degraded into D-contaminants

Molecule: thrombin
- production of GLP-1(7-36)NH2 (reversed phase chromatography) [3]: None of these proteases produced any GLP-1(7-36)NH2

Molecule: CC#N [Acetonitrile]
- optimal concentration for proteolytic activity (clostripain [1]): 20%
- Extent of amidation (% of substrate converted) (clostripain [2]; 20% organic solvent): 18%

Molecule: OCC(F)(F)F [Trifluoroethanol]
- Extent of amidation (% of substrate converted) (clostripain [2]; 20% organic solvent): 9%

B1: plasmin: proteolytic enzyme cleaving at the carboxyl peptide bond of arginine residues (protein, UniProt P00747 20-580; P00747 581-810, looked up)
Plasmin heavy chain A: EPLDDYVNTQGASLFSVTKKQLGAGSIEECAAKCEEDEEFTCRAFQYHSKEQQCVIMAENRKSSIIIRMRDVVLFEKKVYLSECKTGNGKNYRGTMSKTKNGITCQKWSSTSPHRPRFSPATHPSEGLEENYCRNPDNDPQGPWCYTTDPEKRYDYCDILECEEECMHCSGENYDGKISKTMSGLECQAWDSQSPHAHGYIPSKFPNKNLKKNYCRNPDRELRPWCFTTDPNKRWELCDIPRCTTPPPSSGPTYQCLKGTGENYRGNVAVTVSGHTCQHWSAQTPHTHNRTPENFPCKNLDENYCRNPDGKRAPWCHTTNSQVRWEYCKIPSCDSSPVSTEQLAPTAPPELTPVVQDCYHGDGQSYRGTSSTTTTGKKCQSWSSMTPHRHQKTPENYPNAGLTMNYCRNPDADKGPWCFTTDPSVRWEYCNLKKCSGTEASVVAPPPVVLLPDVETPSEEDCMFGNGKGYRGKRATTVTGTPCQDWAAQEPHRHSIFTPETNPRAGLEKNYCRNPDGDVGGPWCYTTNPRKLYDYCDVPQCAAPSFDCGKPQVEPKKCPGR
Plasmin light chain B: VVGGCVAHPHSWPWQVSLRTRFGMHFCGGTLISPEWVLTAAHCLEKSPRPSSYKVILGAHQEVNLEPHVQEIEVSRLFLEPTRKDIALLKLSSPAVITDKVIPACLPSPNYVVADRTECFITGWGETQGTFGAGLLKEAQLPVIENKVCNRYEFLNGRVQSTELCAGHLAGGTDSCQGDSGGPLVCFEKDKYILQGVTSWGLGCARPNKPGVYVRVSRFVTWIEGVMRNN
modifications: Plasmin
notes: proteolytic enzyme cleaving at the carboxyl peptide bond of arginine residues
- production of GLP-1(7-36)NH2 (reversed phase chromatography) [3]: None of these proteases produced any GLP-1(7-36)NH2

B2: papain: thiol protease which is not specific to arginyl bonds (protein, UniProt P00784 134-345, looked up)
Papain: IPEYVDWRQKGAVTPVKNQGSCGSCWAFSAVVTIEGIIKIRTGNLNEYSEQELLDCDRRSYGCNGGYPWSALQLVAQYGIHYRNTYPYEGVQRYCRSREKGPYAAKTDGVRQVQPYNEGALLYSIANQPVSVVLEAAGKDFQLYRGGIFVGPCGNKVDHAVAAVGYGPNYILIKNSWGTGWGENGYIRIKRGTGNSYGVCGLYTSSFYPVKN
- production of GLP-1(7-36)NH2 (reversed phase chromatography) [3]: None of these proteases produced any GLP-1(7-36)NH2

B3: clostripain: extracellular thiol endoprotease from Clostridia, high specificity for Arg-Xaa peptide linkages (protein, UniProt P09870 51-181; P09870 191-526, looked up)
Clostripain light chain: NKNQKVTIMYYCDADNNLEGSLLNDIEEMKTGYKDSPNLNLIALVDRSPRYSSDEKVLGEDFSDTRLYKIEHNKANRLDGKNEFPEISTTSKYEANMGDPEVLKKFIDYCKSNYEADKYVLIMANHGGGAR
Clostripain heavy chain: AICWDDSNLDKNGEADCLYMGEISDHLTEKQSVDLLAFDACLMGTAEVAYQYRPGNGGFSADTLVASSPVVWGPGFKYDKIFDRIKAGGGTNNEDDLTLGGKEQNFDPATITNEQLGALFVEEQRDSTHANGRYDQHLSFYDLKKAESVKRAIDNLAVNLSNENKKSEIEKLRGSGIHTDLMHYFDEYSEGEWVEYPYFDVYDLCEKINKSENFSSKTKDLASNAMNKLNEMIVYSFGDPSNNFKEGKNGLSIFLPNGDKKYSTYYTSTKIPHWTMQSWYNSIDTVKYGLNPYGKLSWCKDGQDPEINKVGNWFELLDSWFDKTNDVTGGVNHYQW
- production of GLP-1(7-36)NH2 (reversed phase chromatography) [3]: produced measureable GLP-1(7-36)NH2
